Results taken from patent US9802941B2, “Compounds and methods for inhibiting histone demethylases” (Gilead Sciences, Inc., priority 2014, dated 2017).
Like-named read-outs stand apart in the source and are kept apart here.

Assays:
Format in all cases: biochemical
[1] = molecular target: T1, KDM5B (PLU-1) (Homo sapiens, UniProt Q9UGL1); test: Histone lysine demethylase AlphaLISA assay, KDM5B
T1 construct: BRIC; 1-809; E. coli; host or cells: E. coli
T1 sequence (Q9UGL1 1-809): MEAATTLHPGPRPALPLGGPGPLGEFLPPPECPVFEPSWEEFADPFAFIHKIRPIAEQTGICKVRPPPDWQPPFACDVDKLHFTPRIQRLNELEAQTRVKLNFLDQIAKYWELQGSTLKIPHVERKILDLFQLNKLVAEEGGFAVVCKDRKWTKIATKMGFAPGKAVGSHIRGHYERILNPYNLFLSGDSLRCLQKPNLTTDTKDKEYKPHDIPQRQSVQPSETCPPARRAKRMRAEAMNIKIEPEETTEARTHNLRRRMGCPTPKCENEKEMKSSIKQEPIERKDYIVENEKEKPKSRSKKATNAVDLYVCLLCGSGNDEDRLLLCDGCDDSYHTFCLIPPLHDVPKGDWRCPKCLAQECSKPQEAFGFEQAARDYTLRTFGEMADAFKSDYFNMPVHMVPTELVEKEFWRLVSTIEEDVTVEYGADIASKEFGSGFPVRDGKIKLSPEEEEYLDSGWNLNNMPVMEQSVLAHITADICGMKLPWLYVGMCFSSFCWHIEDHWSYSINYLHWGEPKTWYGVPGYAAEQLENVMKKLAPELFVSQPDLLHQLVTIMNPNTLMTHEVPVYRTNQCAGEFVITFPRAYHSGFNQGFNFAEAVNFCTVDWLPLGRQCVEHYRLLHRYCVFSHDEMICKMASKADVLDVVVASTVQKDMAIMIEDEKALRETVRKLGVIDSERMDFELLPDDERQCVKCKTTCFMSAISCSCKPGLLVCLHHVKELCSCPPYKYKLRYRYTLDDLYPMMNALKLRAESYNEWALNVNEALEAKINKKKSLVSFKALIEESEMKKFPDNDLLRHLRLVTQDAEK
Protocol: (§1) The compounds of the application, or a pharmaceutically acceptable salt, or solvate, or prodrug thereof, are tested in an in vitro AlphaLISA assay. Enzymes are dissolved in enzyme buffer and incubated before they are added to DMSO solutions of compounds of the application, or a pharmaceutically acceptable salt, or solvate, or prodrug thereof, in enzyme buffer. The reaction mixture is then incubated for an additional period of time before substrate solution is added and then the resulting mixture again incubated. Acceptor beads and suspended Epigenetic Buffer from stock are added and the suspension is again incubated before a suspension of streptavidin donor beads in Epigenetic Buffer is added. After an additional period of incubation, the plates are read.
(§2) The ability of compounds of the application to inhibit the histone lysine demethylase activity in vitro of different enzymes was determined.
(§3) The reaction mixture was incubated for another 10 minutes before 5 μL of substrate solution was added and the resulting mixture was then incubated at room temperature. […] After incubation at room temperature in the dark, the plates were read.
(§4) Enzyme Buffer: 50 mM Hepes (pH 7.4-8.0), 0.003-0.01% Tween-20, 0.1% BSA; 5 μM (NH4)2Fe(SO4)2.

[2] = molecular target: T2, PHF8 (KDM7) (Homo sapiens, UniProt Q9UPP1); test: Histone lysine demethylase AlphaLISA assay, PHF8
T2 construct: KDM7 (PHF8); BRIC; 1-1322; Bac
T2 sequence (Q9UPP1 37-440 limits assumed): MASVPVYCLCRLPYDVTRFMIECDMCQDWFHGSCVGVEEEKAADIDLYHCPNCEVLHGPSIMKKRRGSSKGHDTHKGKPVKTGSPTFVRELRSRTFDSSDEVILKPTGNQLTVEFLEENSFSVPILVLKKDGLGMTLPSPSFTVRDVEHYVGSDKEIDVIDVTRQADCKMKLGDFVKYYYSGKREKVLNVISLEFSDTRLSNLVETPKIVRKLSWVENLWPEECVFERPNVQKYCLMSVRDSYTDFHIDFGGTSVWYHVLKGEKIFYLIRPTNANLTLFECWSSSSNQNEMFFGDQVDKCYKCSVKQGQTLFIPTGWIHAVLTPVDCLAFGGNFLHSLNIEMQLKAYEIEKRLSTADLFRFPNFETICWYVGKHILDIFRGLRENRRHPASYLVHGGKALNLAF
Protocol: as §1, §2, §3, §4

[3] = molecular target: T3, KDM2B (FBXL10) (Homo sapiens, UniProt Q8NHM5); test: Histone lysine demethylase AlphaLISA assay, KDM2B
T3 construct: KDM2B; BPS,; 1-650; Bac; purchased BPS Bioscience, US; host or cells: baculovirus system
T3 sequence (Q8NHM5 1-650): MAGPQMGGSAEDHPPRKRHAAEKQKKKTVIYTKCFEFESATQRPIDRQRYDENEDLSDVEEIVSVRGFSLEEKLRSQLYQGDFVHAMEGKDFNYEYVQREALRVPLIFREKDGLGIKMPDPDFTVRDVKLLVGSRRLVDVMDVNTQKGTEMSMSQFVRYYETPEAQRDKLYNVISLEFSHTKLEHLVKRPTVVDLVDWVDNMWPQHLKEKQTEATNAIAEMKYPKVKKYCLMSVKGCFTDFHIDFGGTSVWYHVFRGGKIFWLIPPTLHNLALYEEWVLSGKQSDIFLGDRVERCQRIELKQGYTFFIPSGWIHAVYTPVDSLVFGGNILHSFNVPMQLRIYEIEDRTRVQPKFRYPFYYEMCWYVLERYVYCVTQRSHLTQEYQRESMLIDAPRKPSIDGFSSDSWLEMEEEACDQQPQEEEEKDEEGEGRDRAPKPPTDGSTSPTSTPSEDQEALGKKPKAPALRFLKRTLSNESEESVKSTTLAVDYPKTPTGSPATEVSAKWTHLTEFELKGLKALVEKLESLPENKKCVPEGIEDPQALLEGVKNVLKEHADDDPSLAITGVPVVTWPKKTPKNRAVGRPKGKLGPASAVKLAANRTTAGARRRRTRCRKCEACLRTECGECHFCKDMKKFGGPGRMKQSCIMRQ
Protocol: as §1, §2, §3, §4

[4] = molecular target: T4, KDM4C (JMJD2C) (Homo sapiens, UniProt Q9H3R0); test: Histone lysine demethylase AlphaLISA assay, KDM4C
T4 construct: KDM4C; BRIC, Denmark; 1-349; E. coli; host or cells: E. coli
T4 sequence (Q9H3R0 1-349): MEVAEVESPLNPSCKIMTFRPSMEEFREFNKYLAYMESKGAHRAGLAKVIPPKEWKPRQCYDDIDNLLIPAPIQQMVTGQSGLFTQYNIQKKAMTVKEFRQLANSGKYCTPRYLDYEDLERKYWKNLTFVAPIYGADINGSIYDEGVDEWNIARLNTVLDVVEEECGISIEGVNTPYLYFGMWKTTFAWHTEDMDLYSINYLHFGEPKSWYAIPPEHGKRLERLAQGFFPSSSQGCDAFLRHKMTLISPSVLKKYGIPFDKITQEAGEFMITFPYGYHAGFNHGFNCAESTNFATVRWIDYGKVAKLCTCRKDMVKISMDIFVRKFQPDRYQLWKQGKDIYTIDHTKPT
Protocol: as §1, §2, §3, §4

[5] = AlphaLISA assay, read-out: HDME Inhibition KDM5B (IC50)
[6] = AlphaLISA, in vitro, read-out: HDME Inhibition KDM5B
[7] = AlphaLISA assay, read-out: HDME Inhibition PHF8 (IC50)
[8] = AlphaLISA, in vitro, read-out: HDME Inhibition PHF8
[9] = AlphaLISA assay, read-out: HDME Inhibition KDM2B (IC50)
[10] = AlphaLISA, in vitro, read-out: HDME Inhibition KDM2B
[11] = AlphaLISA assay, read-out: HDME Inhibition KDM4C (IC50)
[12] = AlphaLISA, in vitro, read-out: HDME Inhibition KDM4C

| Compound | IC50 [1, 5] | IC50 [1, 6] | IC50 [2, 7] | IC50 [2, 8] | IC50 [3, 9] | IC50 [3, 10] | IC50 [4, 11] | IC50 [4, 12] | IC50 [1] |
| --- | --- | --- | --- | --- | --- | --- | --- | --- | --- |
| COc1ccc(O)c(CCNCc2cc(C(=O)O)cc(CO)n2)n1 [Compound 109, 2-({[2-(3-hydroxy-6-methoxypyridin-2-yl)ethyl]amino}methyl)-6-(hydroxymethyl)pyridine-4-carboxylic acid] | > 10 µM | > 10 µM | > 10 µM | > 10 µM | > 10000 nM | > 10000 nM | > 10 µM | > 10 µM |  |
| Cc1cc(C(=O)O)cc(CNCc2nccn2CC(C)C)n1 [Compound 80, 2-methyl-6-[({[1-(2-methylpropyl)-1H-imidazol-2-yl]methyl}amino)methyl]pyridine-4-carboxylic acid] |  |  |  | 5.3 µM |  | 683 nM | > 10 µM | > 10 µM | 1.99 µM |
| O=Cc1cn(Cc2ccc(F)cc2)c(CNCc2cc(C(=O)O)cc(CO)n2)n1 [Compound 111, 2-{[({1-[(4-fluorophenyl)methyl]-4-formyl-1H-imidazol-2-yl}methyl)amino]methyl}-6-(hydroxymethyl)pyridine-4-carboxylic acid] |  |  |  | 5.1 µM |  | 823 nM | > 10 µM | > 10 µM | 1.07 µM |
| Cc1cc(C(=O)O)cc(CNCCc2ncccc2C2=CCCC2)n1 [Compound 59, 2-[({2-[3-(cyclopent-1-en-1-yl)pyridin-2-yl]ethyl}amino)methyl]-6-methylpyridine-4-carboxylic acid] |  |  | > 10 µM | > 10 µM |  | 2750 nM |  |  |  |
| Cc1nc(CNCc2cc(C(=O)O)cc(CO)n2)n(Cc2ccc(F)cc2)c1C [Compound 83, 2-{[({1-[(4-fluorophenyl)methyl]-4,5-dimethyl-1H-imidazol-2-yl}methyl)amino]methyl}-6-(hydroxymethyl)pyridine-4-carboxylic acid] |  |  |  | 4.95 µM |  | 1520 nM | > 10 µM | > 10 µM | 0.755 µM |
| O=C(O)c1cc(CO)nc(CNCc2nncn2CCc2cc(Cl)cc(Cl)c2)c1 [Compound 55, 2-{[({4-[2-(3,5-dichlorophenyl)ethyl]-4H-1,2,4-triazol-3-yl}methyl)amino]methyl}-6-(hydroxymethyl)pyridine-4-carboxylic acid] |  |  |  | 1.3 µM |  | 656 nM | > 10 µM | > 10 µM | 1.78 µM |
| CCc1nnc(CNCc2cc(C(=O)O)cc(CO)n2)n1CCCC(C)C [Compound 94, 2-[({[5-ethyl-4-(4-methylpentyl)-4H-1,2,4-triazol-3-yl]methyl}amino)methyl]-6-(hydroxymethyl)pyridine-4-carboxylic acid] | > 10 µM | > 10 µM |  | 2.03 µM |  | 47 nM | > 10 µM | > 10 µM |  |
| CCOc1ccc(CC(C)C)c(CNCc2cc(C(=O)O)cc(CO)n2)n1 [Compound 101, 2-[({[6-ethoxy-3-(2-methylpropyl)pyridin-2-yl]methyl}amino)methyl]-6-(hydroxymethyl)pyridine-4-carboxylic acid] |  | 6.11 µM |  | 1.33 µM |  | 105 nM | > 10 µM | > 10 µM |  |
| COc1ccc(OCCc2ccccc2)c(CCNCc2cc(C(=O)O)cc(CO)n2)n1 [Compound 107, 2-(hydroxymethyl)-6-[({2-[6-methoxy-3-(2-phenylethoxy)pyridin-2-yl]ethyl}amino)methyl]pyridine-4-carboxylic acid] | > 10 µM | > 10 µM | > 10 µM | > 10 µM |  | 5180 nM | > 10 µM | > 10 µM |  |
| CC#CCc1cnc(CNCc2cc(C(=O)O)cc(C)n2)n1Cc1ccc(F)cc1 [Compound 112, 2-[({[5-(but-2-yn-1-yl)-1-[(4-fluorophenyl)methyl]-1H-imidazol-2-yl]methyl}amino)methyl]-6-methylpyridine-4-carboxylic acid] | > 10 µM | > 10 µM |  | 3.52 µM |  | 375 nM | > 10 µM | > 10 µM |  |
| COc1ccc(OCCc2ccccc2)c(CNCc2cc(C(=O)O)cc(C)n2)n1 [Compound 104, 2-[({[6-methoxy-3-(2-phenylethoxy)pyridin-2-yl]methyl}amino)methyl]-6-methylpyridine-4-carboxylic acid] | > 10 µM | > 10 µM |  | 0.4 µM |  | 145 nM |  |  |  |
| COc1ccc(CC(C)C)c(CNCc2cc(C(=O)O)cc(C)n2)n1 [Compound 74, 2-[({[6-methoxy-3-(2-methylpropyl)pyridin-2-yl]methyl}amino)methyl]-6-methylpyridine-4-carboxylic acid] | > 10 µM | > 10 µM |  | 3.81 µM |  | 1860 nM |  |  |  |
| Cc1cc(C(=O)O)cc(CNCc2nocc2COc2ccc(F)cc2)n1 [Compound 76, 2-[({[4-(4-fluorophenoxymethyl)-1,2-oxazol-3-yl]methyl}amino)methyl]-6-methylpyridine-4-carboxylic acid] | > 10 µM | > 10 µM | > 10 µM | > 10 µM |  | 4730 nM |  |  |  |
| COC(=O)c1cn(Cc2ccc(F)cc2)c(CNCc2cc(C(=O)O)cc(CO)n2)n1 [Compound 106, 2-{[({1-[(4-fluorophenyl)methyl]-4-(methoxycarbonyl)-1H-imidazol-2-yl}methyl)amino]methyl}-6-(hydroxymethyl)pyridine-4-carboxylic acid] | > 10 µM | > 10 µM |  | 2.77 µM |  | 3100 nM |  |  |  |
| Cc1cc(C(=O)O)cc(CNCc2nnc(C)n2-c2cccc(Cl)c2)n1 [Compound 58, 2-[({[4-(3-chlorophenyl)-5-methyl-4H-1,2,4-triazol-3-yl]methyl}amino)methyl]-6-methylpyridine-4-carboxylic acid] | > 10 µM | > 10 µM | > 10 µM | > 10 µM | > 10000 nM | > 10000 nM |  |  |  |
